Results as given in patent US20260041640A1 (INCYCLIX BIO, LLC, priority 2023, published 2026).

Tests used:
CDK2/cyclin E = CDK2/cyclin E (Homo sapiens, UniProt P24941); settings: intracellular; read-out: Nanobret IC50 CDK2/cyclin E; cited from earlier work
[1] = system: ST4316B ER+, CDK4/6 inhibitor-resistant breast PDX model; assay: ST4316B ER+, CDK4/6 inhibitor-resistant breast PDX model; type: in vivo, athymic nude mice
Protocol: Athymic nude, outbread homozygous (Crl:NU(NCr)-Foxnl^nu) 6-12-week-old ST4316B [HX] mice were analyzed. Tumor fragments from ST4316B were harvested from host animals and implanted into immune-deficient mice and the study initiated at a mean tumor volume of approximately 150-300 mm^3. […] Data collected from this study included animal weights, observations, and tumor dimensions. This information was used to determine agent tolerability based on weight change and gross physiologic changes; and anticancer activity based on tumor growth inhibition or regression. […]

## NS(=O)(=O)c1ccc(Nc2ncc3cc4n(c3n2)C2(CCCCC2)C(=O)NN4)cc1 [INX-315]
CDK2/cyclin E
  IC50: 2 nM
[1]; Day 31, INX-315 100 mg/kg BID + ribociclib 50 mg/kg QD, p=0.0033
  tumor growth inhibition versus control: statistically significant tumor growth inhibition
[1]; Day 45, INX-315 100 mg/kg BID + ribociclib 50 mg/kg QD (Group 8), p<0.0002
  tumor growth inhibition percentage (TGI %): 65%
